Reference: patent US8909483B2, “Direct or indirect diagnostic test for helminth infection” (priority 2002, dated 2014)

B1: r-Sm14: recombinant Sm14 protein expressed by the pRSETA-6×His-Sm14 construct in E. coli BL21(DE3) (protein, UniProt P29498 1-133, looked up)
14 kDa fatty acid-binding …: MSSFLGKWKLSESHNFDAVMSKLGVSWATRQIGNTVTPTVTFTMDGDKMTMLTESTFKNLSCTFKFGEEFDEKTSDGRNVKSVVEKNSESKLTQTQVDPKNTTVIVREVDGDTMKTTVTVGDVTAIRNYKRLS
modifications: 6xHis tag

Assays:
Format in all cases: in vivo, outbred Swiss mice
S. mansoni [1] = assay: First vaccination experiment against S. mansoni (Example 4, FIG. 11); settings: 70 μg peptide + MPL-TDM + Al(OH)3, inguinal route, challenge 100 cercariae 60 days after last immunization, perfused 45 days later
Experimental: Percentage protection, {(C−V)/C}×100}, of outbred Swiss mice is given after vaccination and subsequent challenge with 100 cercariae. From left to right the bars correspond to vaccination with peptide 1.2, peptide 1.3, peptide 1.4, peptide 2.1, peptide 2.2, peptide 2.3, peptide 2.4, peptide 2.5, peptide 2.6, r-Sm14, saline extract (SE) administered via the footpad, SE administered via the inguinal route, adjuvant and PBS respectively. All peptides were administered via the inguinal route. All peptides were administered in the presence of the adjuvant monophosphoryl lipid A+trehalose dicorynomycolate (MPL-TDM, Ribi ImmunoChem Research Inc.)+Alum.
In this experiment, outbreed Swiss mice were immunized with two intradermal/subcutaneous doses at an interval of 7 days followed by a booster injection, 21 days later. In the case of the peptides, a dose of 70 μg in the presence of the adjuvant monophosphoryl lipid A+trehalose dimycolate (MPL-TDM, Ribi ImmunoChem Research Inc.) and Al(OH)3 was used for all injections. […]
(§1) For assays of protection against S. mansoni, the animals were challenged subcutaneously with 100 cercariae, 60 days after the last immunization and perfused 45 days later. Overall protection was calculated by the formula {(C−V)/C}×100, where C is the average number of worms in control animals and V is the average number of worms in vaccinated animals.

F. hepatica = assay: Fasciola hepatica protection assay (Example 6, FIG. 13); settings: footpad, oral challenge 3 metacercariae, sacrifice 30 days after challenge
Text: Due to the limited number of parasites used for challenge, animals are considered protected when they present sterile immunity, i.e. no adult worms are present after sacrifice. The mean protection is therefore given as the percentage of sterile animals at sacrifice. From left to right the bars correspond to peptide 1.1, peptide 1.3, peptide 1.4, peptide 2.1, peptide 2.5, r-Sm14+adjuvant, r-Sm14, adjuvant and PBS respectively. The adjuvant used was monophosphoryl lipid A+trehalose dicorynomycolate (MPL-TDM, Ribi ImmunoChem Research Inc.)+Alum.
This example refers to the use of some of the peptides described in Example 1 for vaccination against Fasciola hepatica in the Swiss mouse model. For the Fasciola hepatica protection assay each group (10 outbred Swiss mice/group) received three intradermal/subcutaneous doses via the footpad using an identical protocol to that described above for S. mansoni. Animals were vaccinated with either 70 μg of one of the sub-group of peptides described above (1.1, 1.3, 1.4, 2.1 and 2.5), emulsified in Ribi adjuvant (MPL-TDM) and Al(OH)3 or 10 μg of r-Sm14 (in the presence or absence of adjuvant), or an equivalent amount of adjuvant alone. Vaccinated and non-vaccinated control groups were simultaneously challenged orally with 3 metacercariae of F. hepatica 60 days after immunization and the sacrifice of all animals performed 30 days after challenge.

S. mansoni [2] = assay: Second vaccination experiment against S. mansoni, footpad route (Example 5, FIG. 12); settings: challenge 100 cercariae; for Percentage protection {(C−V)/C}×100: 70 μg peptide + MPL-TDM + Al(OH)3, footpad route, perfused 45 days later; for Performance (protection) compared with recombinant whole protein r-Sm14: footpad route
Experimental: Percentage protection is given as in FIG. 9. From left to right the bars correspond to peptide 1.1, peptide 1.3, peptide 1.4, peptide 2.1, peptide 2.5, r-Sm14, adjuvant and PBS respectively. In this experiment all samples were administered via the footpad. All peptides were administered in the presence of adjuvant: monophosphoryl lipid A+trehalose dicorynomycolate (MPL-TDM, Ribi ImmunoChem Research Inc.)+Alum.
In this experiment an identical protocol as Example 4 was employed for a sub-group of peptides including those which appeared most promising (1.1; 1.3; 1.4 and 2.1) together with 2.5 as a control, but employing the footpad as the route of administration.
as §1, with “Animals” for “For assays of protection against S. mansoni, the animals”

[3] = with adjuvant MPL-TDM + Al(OH)3, 70 μg peptide or 10 μg r-Sm14

| Molecule | Percentage protection {(C−V)/C}×100 (S. mansoni [1]) | Percentage protection (percentage of sterile animals at sacrifice) (F. hepatica; [3]) | Percentage protection {(C−V)/C}×100 (S. mansoni [2]) | Performance (protection) compared with recombinant whole protein r-Sm14 (S. mansoni [2]) | Percentage protection (percentage of sterile animals at sacrifice) (F. hepatica; absence of adjuvant, 10 μg r-Sm14) |
| --- | --- | --- | --- | --- | --- |
| EKFSESKLTFDGIVREVDGATMKTT (Oligopeptide derived from the fusion of two peptides from Schistosoma mansoni) [Peptide 2.5, Alternate modification to 2.3] | no protection at all and zero | – | – | – | – |
| EKNSESKLTQ (Oligopeptide from Schistosoma mansoni) [Peptide 2.1, Loop between β-strands 6 and 7 of Sm14, residues 85 to 94] | – | 100% | 50% | equivalent to that seen for the recombinant whole protein | – |
| KIGTSVFGTRTSKFDATEMVLDKEE [Peptide 2.6, 2.5 randomized; control peptide of identical amino acid composition] | no protection at all and zero | – | – | – | – |
| VTVGDVTA (oligopeptide from Schistosoma mansoni) [Peptide 1.1, Loop between β-strands 9 and 10 of Sm14, residues 118 to 125] | – | 66.7% | ~50% | equivalent to that seen for the recombinant whole protein | – |
| VTVGDVTANFDAVMSKLG (Oligopeptide derived from the fusion of two peptides from Schistosoma mansoni) [Peptide 1.3, Union of 1.1 and 1.2] | – | 50% | – | equivalent to that seen for the recombinant whole protein | – |
| VTVGDVTGGSDAVMSKLG (Oligopeptide derived from the fusion of two peptides from Schistosoma mansoni) [Peptide 1.4, 1.3 modified] | – | 100% | – | equivalent to that seen for the recombinant whole protein | – |
| B1 | – | 100% | – | – | 100% |
